The values that follow come from patent US20110028499A1, “PHARMACEUTICAL COMBINATION COMPRISING VITAMIN K” (SHIONOGI & CO., LTD., priority 2005, published 2011).

pEC50: −log10 of the molar value. “And” between values parts separate entries of the source, which are not always exact repeats. Equal entries are not always repeated. “Also recorded” adds a separate entry of the source.

The subject of data set [1] is male Sprague-Dawley rats. The experiment in a line: Example 1: PT, APTT and Fbg in rat plasma after 7-day repeated gavage administration. Format: in vivo. As to conditions: 300 mg/kg/day gavage, 7 days; for PT and APTT compared with Controls / APTT / Fbg / PT: rat.
The subject of data set [2] is male Sprague-Dawley rats. The experiment in a line: Example 2: PT, APTT and Fbg in rat plasma after 1, 2 and 3 administrations. Format: in vivo. The following applies: 300 mg/kg/day oral, blood on next day, mean.
The subject of data set [3] is extrinsic and intrinsic blood coagulation factors. Description: Example 2: activities of extrinsic and intrinsic blood coagulation factors in rat plasma (factor deficient plasma method). The format is in vivo. As to conditions: 300 mg/kg/day oral, mean, % of intact rat plasma.
The subject of data set [4] is male Sprague-Dawley rats. Description: Example 3: PT, APTT and Fbg in rats given Compound (a) and/or vitamin K1 for 3 days. As to conditions: rat; for APTT / Fbg / PT: mean. The format is in vivo. The protocol:
(§1) 4-week-old male Sprague-Dawley rats (Crj:CD(SD)IGS, SPF) were purchased from CHARLES RIVER LABORATORIES JAPAN, INC., Hino Breeding Center. […] Administeration was started at. […] Subcutaneous administeration was a 3-day administeration (3 or 200 μg/kg/day) into the back skin with injection syringe attached with a subcutaneous 1⁄4 needle at 1 mL/kg/day. Oral administeration was a 3-day repeated gavage administeration (200 μg/kg/day) with gastric tube for rats at. 4 mL/kg/day. Dosing volume was calculated based on body weight measured on that day. […] Activities of Vitamin K-dependent coagulation factors ([…]) were also) measured with the same blood plasma samples according to Example 2.

The subject of data set [5] is Vitamin K-dependent coagulation factors (F-II, F-VII, F-X, F-IX). The experiment in a line: Example 3: activities of vitamin K-dependent coagulation factors in rats given Compound (a) and/or vitamin K1. Format: in vivo. As to conditions: rat, 3 days; for F-II activity / F-IX activity / F-VII activity / F-X activity: mean. The procedure: as §1
The test system of data set [6] is male Sprague-Dawley rats. The experiment in a line: Example 4: PT, APTT and Fbg in rats given Compound (a) with or without vitamin K1 for 7 days. As to conditions: rat; for APTT / Fbg / PT: Compound (a) only 200 mg/kg oral. Format: in vivo. The procedure: 4-week-old male Sprague-Dawley rats (Crl:CD(SD), SPF) were purchased from CHARLES RIVER LABORATORIES JAPAN, INC., Hino Breeding Center. […] 0.005% (v/v) solution of vitamin K1 (TOYO Pharma Co., Ltd., 30 mg/3 mL) was prepared just before use with a vehicle of water for injection (Otsuka Pharmaceutical Factory, Inc.). […] Dosing volume was calculated based on body weight, measured on that day. […] The rats were dissected after collecting the blood and a visual inspection of skeletal muscle (soleus muscle) was carried out. After that, the muscle was fixed with 10% neutral buffered formalin, paraffin section was routinely processed, and a histological examination was carried out with an optical microscope after hematoxylin and eosin staining.

In data set [7] the test system is skeletal muscle (soleus muscle). The experiment in a line: Example 4: histological examination of skeletal muscle (soleus muscle). Format: in vivo. More on the design: key: (±): slight; (+): mild. As to conditions: rat, Compound (a) only 200 mg/kg oral, 7 days; individual animal.
For data set [8] the following is noted: disclosed in WO01/00603; cited from earlier work.
Another data set deals with human PPARδ (hPPARδ) (Homo sapiens, UniProt Q03181). The experiment in a line: cell-based.
[9] abbreviates: Compound (a) only 300 mg/kg oral.
Where [10] appears, read: Compound (a) only 300 mg/kg/day.
Setting [11] is: individual animal, 300 mg/kg/day.
[12] abbreviates: vitamin K1 only 200 μg/kg subcutaneous.

Sequence of human PPARδ (hPPARδ) (Q03181 139-441 limits assumed): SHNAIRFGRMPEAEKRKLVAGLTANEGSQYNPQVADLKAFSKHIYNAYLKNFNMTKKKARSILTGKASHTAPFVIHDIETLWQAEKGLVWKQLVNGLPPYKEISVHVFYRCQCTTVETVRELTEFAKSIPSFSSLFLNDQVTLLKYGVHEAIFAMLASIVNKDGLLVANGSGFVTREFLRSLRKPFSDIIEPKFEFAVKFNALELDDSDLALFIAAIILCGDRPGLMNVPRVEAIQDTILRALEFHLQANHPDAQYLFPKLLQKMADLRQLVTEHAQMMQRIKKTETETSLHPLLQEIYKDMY

Take `Cc1cc(SCc2sc(-c3ccc(C(F)(F)F)cc3)nc2C)ccc1OCC(=O)O` [Compound (a), GW501516]: in the data set on male Sprague-Dawley rats [1] (4 animals in the group), the rats died worked out at 3. Further, the “PT and APTT compared with Controls” value in the data set on male Sprague-Dawley rats [1] is on record as “prolonged”. Besides, the APTT was determined as 46.4 s in the data set with male Sprague-Dawley rats [1] (blood on next day, group mean); 46.4 s in the data set on male Sprague-Dawley rats [1] (individual animal); 19.9 s in the data set on male Sprague-Dawley rats [2] (1 dose); 25.5 s in the data set with male Sprague-Dawley rats [2] (2 doses); 30.7 s in the data set with male Sprague-Dawley rats [2] (3 doses); 30.2 s in the data set with male Sprague-Dawley rats [4] (setting [9]). In addition, the APTT in the data set on male Sprague-Dawley rats [6] (individual animal) was 34.1 s and 67.1 s; in the data set with male Sprague-Dawley rats [6] (mean) it was 50.6 s. Also, the Fbg in the data set with male Sprague-Dawley rats [1] (blood on next day, group mean) amounted to 173.3 mg/dL; in the data set with male Sprague-Dawley rats [1] (individual animal), 173.3 mg/dL; with male Sprague-Dawley rats [2] (1 dose), 200.1 mg/dL; in the data set on male Sprague-Dawley rats [2] (2 doses) it was 198.8 mg/dL; in the data set on male Sprague-Dawley rats [2] (3 doses), 175.7 mg/dL; in the data set on male Sprague-Dawley rats [4] (setting [9]) it was 177.8 mg/dL. Besides, the Fbg was 199.7 mg/dL and 227.2 mg/dL in the data set with male Sprague-Dawley rats [6] (individual animal); 213.5 mg/dL with male Sprague-Dawley rats [6] (mean). Moreover, the PT was 26.9 s in the data set on male Sprague-Dawley rats [1] (blood on next day, group mean); 26.9 s in the data set with male Sprague-Dawley rats [1] (individual animal); 14.6 s with male Sprague-Dawley rats [2] (1 dose); 18.3 s with male Sprague-Dawley rats [2] (2 doses); 21.7 s with male Sprague-Dawley rats [2] (3 doses); 23.0 s with male Sprague-Dawley rats [4] (setting [9]). Also, the PT is 19.1 s and 35.5 s in the data set with male Sprague-Dawley rats [6] (individual animal); 27.3 s in the data set on male Sprague-Dawley rats [6] (mean). Besides, the F-II activity was found to be 60.8% in [3] (1 dose), 24.2% in [3] (2 doses), 15.1% in [3] (3 doses) and 13.8% in data set [5] (setting [9]). Besides, the F-IX activity was determined as 62.5% in data set [3] (1 dose), 34.2% in data set [3] (2 doses), 24.6% in [3] (3 doses) and 27.7% in data set [5] (setting [9]). Moreover, the F-V activity is reported as 93.3% in data set [3] (1 dose), 90.6% in data set [3] (2 doses) and 93.0% in data set [3] (3 doses). Moreover, the F-VII activity in [3] (1 dose) is recorded as 57.7%; in data set [3] (2 doses) it was 17.1%; in data set [3] (3 doses) it was 8.8%; in data set [5] (setting [9]), 6.3%. The F-VIII activity in data set [3] (1 dose) worked out at 99.2%; in data set [3] (2 doses) it was 94.2%; in [3] (3 doses) it was 101.2%. Besides, the F-X activity was found to be 68.3% in data set [3] (1 dose), 44.7% in data set [3] (2 doses), 32.4% in data set [3] (3 doses) and 29.9% in [5] (setting [9]). Further, the F-XI activity in data set [3] (1 dose) turned out to be 84.0%; in data set [3] (2 doses) it was 76.0%; in [3] (3 doses) it was 71.0%. The F-XII activity in data set [3] (1 dose) worked out at 79.4%; in data set [3] (2 doses), 80.7%; in data set [3] (3 doses), 78.6%. Besides, the “PT and APTT compared with the intact group” value in the data set on male Sprague-Dawley rats [4] (setting [10]) is “more prolonged”. The “activities of vitamin K-dependent coagulation factors compared with the intact group” value in data set [5] (setting [10]) is reported as “lowered”. Further, the “prothrombin time and activated partial thromboplastin time” value with male Sprague-Dawley rats [6] (Compound (a) only 200 mg/kg/day) is listed as “prolonged”. Also, the “Histological examination Soleus muscle: Necrosis” value in data set [7] is “Necrosis (+); also recorded: Necrosis (±)”. In addition, the “elevation of HDL” value in [8] is “high elevation of HDL; also recorded: HDL-raising”.

What is called pEC50 is −log10 of the EC50, conventionally taken in molar units. For the compound `CCO/N=C/c1c(CSc2ccc(C(C)CC(=O)O)cc2OC)noc1-c1ccc(C(F)(F)F)cc1` (centres unmarked) [Compound (b)], the “PT and APTT compared with Controls” value in the data set with male Sprague-Dawley rats [1] was “prolonged”. Also, in the data set with male Sprague-Dawley rats [1] (blood on next day, group mean), the APTT is 31.3 s, the Fbg was 204.5 mg/dL and the PT came out at 18.6 s. In the data set with male Sprague-Dawley rats [1] (setting [11]), the APTT is 29.1 s and 28.2 s and 30.7 s and 37.3 s; the Fbg is 217.9 mg/dL (2×) and 208.9 mg/dL and 173.3 mg/dL; the PT was 17.4 s and 18.6 s and 16.4 s and 22.0 s. This compound showed a pEC50 on human PPARδ (hPPARδ) of 8.89.

As to `Cc1c(CSc2ccc([C@@H](C)CC(=O)O)cc2)noc1-c1ccc(C(F)(F)F)cc1` [Compound (c)], in the data set with male Sprague-Dawley rats [1], the “PT and APTT compared with Controls” value was “prolonged”. In the data set on male Sprague-Dawley rats [1] (blood on next day, group mean), this compound returned an APTT of 43.9 s, a Fbg of 204.8 mg/dL and a PT of 24.5 s. For the same compound, in the data set with male Sprague-Dawley rats [1] (setting [11]), the APTT was 21.9 s and 41.8 s and 68.2 s and 43.8 s; the Fbg was 201.8 mg/dL and 179.6 mg/dL and 193.8 mg/dL and 243.9 mg/dL; the PT was 13.6 s and 22.3 s and 35.9 s and 26.0 s. For the same compound, at human PPARδ (hPPARδ), the pEC50 was 7.72.

For the compound `CC1=C(C/C=C(\C)CCC[C@H](C)CCC[C@H](C)CCCC(C)C)C(=O)c2ccccc2C1=O` [Vitamin K1, phylloquinone], in the data set on male Sprague-Dawley rats [4] (setting [12]), the APTT came out at 15.9 s, the Fbg came to 200.3 mg/dL and the PT came out at 15.3 s. Besides, in the data set on male Sprague-Dawley rats [4] (vitamin K1 only 200 μg/kg/day subcutaneous), the “each item (PT, APTT, Fbg, factor activities) compared with the intact group” value is on record as “no significant differences”. Besides, in data set [5] (setting [12]), the F-II activity turned out to be 92.7%, the F-IX activity amounted to 100.2%, the F-VII activity is given as 70.1% and the F-X activity was 74.3%.
